pIC50: −log10 of the molar value.
What was measured:
[1] = system: HIF2α reporter cells (786-O-HIF2α-Luc cells); experiment: Luciferase Assay (HIF2α reporter cells); type: cell-based; conditions: 18-20 h, Steady-Glo luminescence
Description: Luciferase LUC gene was transfected into 786-O cells (purchased from ATCC) using Lipofectamine 3000 Transfection Reagent (purchased from Invitrogen) to construct HIF2α reporter cells (786-O-HIF2α-Luc cells). Experiments were performed when 786-O-HIF2α-Luc cells were in logarithmic growth phase, culture medium (RPMI MEDIUM 1640, purchased from Invitrogen) was abandoned, the cells were rinsed with PBS three times; trypsin (TrypLE, purchased from invitrogen) was added to digest cells, the digestion was terminated by washing the cells with culture medium, 10% fetal bovine serum, 1% penicillin and streptomycin. The cells were collected by centrifugation, rinsed twice with PBS to remove the phenol red in the medium, and then resuspended the cells to an appropriate concentration, and detected the cell density and viability, and made sure the cell viability is above 90% before it can be used for experiments.
The gradient concentration compound was transferred into 384-well plate, 25 nl/well using Echo 550 (non-contact sonic pipetting system, purchased from Labcyte); the cells were seeded in 384-well plate, 4500 cells/well, with 25 μl of culture medium, to make the final concentrations as follows: 10000, 3333, 1111, 370, 123, 41.1, 13.7, 4.6, 1.5, 0.5 nM. Cells were incubated at 37° C., 5% CO2 for 18-20 h; Steady-Glo™ Luciferase Assay System (purchased from Promega) was added to 384 well-plate, 25 μl/well; the luminescence value was detected with Envision. The % inhibition rate was calculated according to the RLU (Record Luminescence) signal value of each well, and then the IC50 of the corresponding compound was calculated by Graphpad 8.0.

[2] = system: VEGFA (786-O cells); experiment: VEGFA ELISA Assay (IC50); type: cell-based; conditions: 24 hours incubation, VEGFA in culture supernatant by ELISA, numeric values
Description: 786-O cells in exponential growth phase were seeded in 96-well plate, the cell concentration was 65,000 cells per milliliter of culture medium, 180 ul per well. Compounds were serial diluted to the indicated concentration, and 20 ul compound solutions of different concentrations were added to the corresponding cell wells. The final compound concentrations were as follows (nM): 1.5, 4.6, 13.7, 41.2, 123.5, 370.4, 1111.1, 3333.3, 10000. After 24 hours of incubation, the cell culture supernatant was taken, and the VEGFA concentration was determined using an ELISA kit (purchased from abcam). Finally, the reaction was terminated, and the light absorbance value of each well was measured using a microplate reader at a wavelength of […], and IC50 was calculated by GraphPad Prism. Cell Titer-Glo reagent was used to measure cell viability.

[2H][C@]1(O)c2c(C(F)(F)F)cn(-c3ccc(F)c(C#N)c3)c2CCC1(F)F [Example 200, (S)-5-(5,5-difluoro-4-hydroxyl-3-(trifluoromethyl)-4,5,6,7-tetrahydro-1H-indol-1-yl-4-d)-2-fluorobenzonitrile]
pIC50 ([1]; numeric values): 7.47 | pIC50 ([2]; Homo sapiens, 786-0, 24 h): 8.25

(4S,5S)-1-(3-(difluoromethyl)-4-fluorophenyl)-5-fluoro-3-(trifluoromethyl)-4,5,6,7-tetrahydro-1H-indol-4-ol and (4R,5R)-1-(3-(difluoromethyl)-4-fluorophenyl)-5-fluoro-3-(trifluoromethyl)-4,5,6,7-tetrahydro-1H-indol-4-ol [Example 103]
pIC50 ([1]; class symbols): ≥ 6.30 | pIC50 [2]: 7.36
